Patent US5541183A, “Ginkgolide derivatives” (priority 1993, dated 1996)
pIC50: −log10 of the molar value.

Test system: PAF-induced rabbit platelet aggregation
Assay: PAF-induced rabbit platelet aggregation
Format: cell-based, rabbit (New Zealand white)
Details: Oryctolagus cuniculus, rabbit PRP, PAF 5×10^-9 M, read-out: IC50, inhibition of PAF-induced rabbit platelet aggregation
Procedure: Pharmacology Example 1: PAF-induced rabbit platelet aggregation
Blood was collected from the ear artery of a male New Zealand white rabbit and mixed with 3.8% sodium citrate in a 9:1 volume ratio. Platelet rich plasma (PRP) was obtained by centrifugation of the blood at 150 g for 10 min at room temperature. The number of platelets was adjusted to 3×10^8 platelets/ml with platelet poor plasma. Platelet aggregation was monitored by continuous recording of light transmission in a dual-channel aggregometer (Chrono-Log 560-VS) coupled with a two channel recorder (Chrono-Log 707). Stirred PRP was treated with various concentrations of the test compounds or vehicle (0.5% DMSO) for 2 min and then PAF(5×10^-9 M) was added to induce platelet aggregation.
Inhibition values were calculated by comparing the extent of aggregation obtained in the presence of the vehicle alone (0.5% DMSO) and in the presence of a test compound. Log concentration-response curves were generated and the IC50 values were determined by regression analysis.
Table 1 lists results from this assay for inhibition of PAF-induced rabbit platelet aggregation for illustrative examples of the compounds of this invention.

SMILES | pIC50
CC1C(=O)OC2C(O)C34C5CC(C(C)(C)C)C36C(OC(=O)C6OCc3ccc6ccccc6n3)OC4(C(=O)O5)C12O (stereo not drawn) [Example 102, 10-(2-quinolinyl)-methoxy-Ginkgolide B] | 6.88
CC1C(=O)OC2C(O)C34C5CC(C(C)(C)C)C36C(OC(=O)C6OCc3ccc(C(F)(F)F)cc3)OC4(C(=O)O5)C12O (stereo not drawn) [Example 94, 10-(4'-trifluoromethylbenzyloxy)-Ginkgolide B] | 6.92
COc1ccc(COC2C(=O)OC3OC45C(=O)OC6CC(C(C)(C)C)C32C64C(O)C2OC(=O)C(C)C25O)cc1 (stereo not drawn) [Example 14, 10-(4'-methoxybenzyloxy)-Ginkgolide B] | 7.07
CC1C(=O)OC2C(O)C34C5CC(C(C)(C)C)C36C(OC(=O)C6OCCCOc3ccccc3)OC4(C(=O)O5)C12O (stereo not drawn) [Example 78, 10-(3'-phenoxypropoxy)-Ginkgolide B] | 6.80
CC1C(=O)OC2C(O)C34C5CC(C(C)(C)C)C36C(OC(=O)C6OCc3cc(C(C)(C)C)c(O)c(C(C)(C)C)c3)OC4(C(=O)O5)C12O (stereo not drawn) [Example 31] | 7.11
CC1C(=O)OC2C(OCc3ccc(Cl)cc3Cl)C34C5CC(C(C)(C)C)C36C(OC(=O)C6OCc3ccc(Cl)cc3Cl)OC4(C(=O)O5)C12O (stereo not drawn) [Example 92, 1,10-bis(2',4'-dichlorobenzyloxy)-Ginkgolide B] | 6.99
Cc1cc(COC2C(=O)OC3OC45C(=O)OC6CC(C(C)(C)C)C32C64C(O)C2OC(=O)C(C)C25O)cc(N)c1O (stereo not drawn) [Example 35] | 7.00
Cc1cnc(COC2C(=O)OC3OC45C(=O)OC6CC(C(C)(C)C)C32C64C(O)C2OC(=O)C(C)C25O)c(C)c1[N+](=O)[O-] (stereo not drawn) [Example 98, 10-(3,5-dimethyl-4-nitro-2-pyridinyl)-methoxy-Ginkgolide B] | 6.88
CCCOc1ccc(C)nc1COC1C(=O)OC2OC34C(=O)OC5CC(C(C)(C)C)C21C53C(O)C1OC(=O)C(C)C14O (stereo not drawn) [Example 112] | 6.91
CC1C(=O)OC2C(OCc3ccc(C(F)(F)F)cc3)C34C5CC(C(C)(C)C)C36C(OC(=O)C6OCc3ccc(C(F)(F)F)cc3)OC4(C(=O)O5)C12O (stereo not drawn) [Example 95] | 7.06
CC1C(=O)OC2C(O)C34C5CC(C(C)(C)C)C36C(OC(=O)C6OCCBr)OC4(C(=O)O5)C12O (stereo not drawn) [Example 116, 10-(2'-bromoethoxy)-Ginkgolide B] | 6.95
CC1C(=O)OC2C(O)C34C5CC(C(C)(C)C)C36C(OC(=O)C6OCc3ccc(Cl)c(Cl)c3)OC4(C(=O)O5)C12O (stereo not drawn) [Example 11] | 7.00
CC1C(=O)OC2C(O)C34C5CC(C(C)(C)C)C36C(OC(=O)C6OCc3ccc(Cl)nc3)OC4(C(=O)O5)C12O (stereo not drawn) [Example 107, 10-(6-chloro-3-pyridinyl)-methoxy-Ginkgolide B] | 6.80
CC1C(=O)OC2C(O)C34C5CC(C(C)(C)C)C36C(OC(=O)C6OCc3ccc(Cl)cc3)OC4(C(=O)O5)C12O (stereo not drawn) [Example 3, 10-(4'-chlorobenzyloxy)-Ginkgolide B] | 7.02
CCOc1ccnc(COC2C(=O)OC3OC45C(=O)OC6CC(C(C)(C)C)C32C64C(O)C2OC(=O)C(C)C25O)c1 (stereo not drawn) [Example 110] | 6.80
CC1C(=O)OC2C(O)C34C5CC(C(C)(C)C)C36C(OC(=O)C6OS(=O)(=O)c3ccccc3)OC4(C(=O)O5)C12O (stereo not drawn) [Example 90, 10-benzenesulfonyloxy-Ginkgolide B] | 7.09
CC1C(=O)OC2C(O)C34C5CC(C(C)(C)C)C36C(OC(=O)C6OCc3cccnc3)OC4(C(=O)O5)C12O (stereo not drawn) [Example 108, 10-(3-pyridinyl)-methoxy-Ginkgolide B] | 6.87
Cc1cnc(COC2C(=O)OC3OC45C(=O)OC6CC(C(C)(C)C)C32C64C(O)C2OC(=O)C(C)C25O)c(C)c1NO (stereo not drawn) [Example 104, 10-(3,5-dimethyl-4-hydroxyamino-2-pyridinyl)-methoxy-Ginkgolide B] | 6.96

Now from value to compound:

pIC50 | SMILES
7.13 | Cc1ccccc1COC1C(=O)OC2OC34C(=O)OC5CC(C(C)(C)C)C21C53C(O)C1OC(=O)C(C)C14O (stereo not drawn) [Example 41, 10-(2'-methylbenzyloxy)-Ginkgolide B]
7.14 | CC1C(=O)OC2C(O)C34C5CC(C(C)(C)C)C36C(OC(=O)C6OCc3cccc(C(F)(F)F)c3)OC4(C(=O)O5)C12O (stereo not drawn) [Example 93, 10-(3'-trifiuoromethylbenzyloxy)-Ginkgolide B]
7.14 | CC1C(=O)OC2C(O)C34C5CC(C(C)(C)C)C36C(OC(=O)C6OCc3ccc(Cl)cc3Cl)OC4(C(=O)O5)C12O (stereo not drawn) [Example 2, 10-(2',4'-dichlorobenzyloxy)-Ginkgolide B]
7.17 | CC1C(=O)OC2C(O)C34C5CC(C(C)(C)C)C36C(OC(=O)C6OCc3cccc(F)c3)OC4(C(=O)O5)C12O (stereo not drawn) [Example 84, 10-(3'-fluorobenzyloxy)-Ginkgolide B]
7.21 | COc1cc(COC2C(=O)OC3OC45C(=O)OC6CC(C(C)(C)C)C32C64C(O)C2OC(=O)C(C)C25O)cc(OC)c1OC (stereo not drawn) [Example 15, 10-(3',4',5'-trimethoxybenzyloxy)-Ginkgolide B]
7.21 | Cc1cc(COC2C(=O)OC3OC45C(=O)OC6CC(C(C)(C)C)C32C64C(O)C2OC(=O)C(C)C25O)cc(C)c1O (stereo not drawn) [Example 27]
7.21 | CC1C(=O)OC2C(O)C34C5CC(C(C)(C)C)C36C(OC(=O)C6OCCn3cncn3)OC4(C(=O)O5)C12O (stereo not drawn) [Example 120, 10-(2'-(1"-(1",2",4"-triazolyl)-ethoxy))-Ginkgolide B]
7.24 | CC1C(=O)OC2C(O)C34C5CC(C(C)(C)C)C36C(OC(=O)C6OCCN3CCNCC3)OC4(C(=O)O5)C12O (stereo not drawn) [Example 121, 10-(2'-(1"-piperazinyl)-ethoxy)-Ginkgolide B]
7.25 | CC1C(=O)OC2C(O)C34C5CC(C(C)(C)C)C36C(OC(=O)C6OCCN3CCCC3)OC4(C(=O)O5)C12O (stereo not drawn) [Example 122, 10-(2'-(1"-pyrrolidinyl)-ethoxy)-Ginkgolide B]
7.27 | CC1C(=O)OC2C(O)C34C5CC(C(C)(C)C)C36C(OC(=O)C6OCCN3CCOCC3)OC4(C(=O)O5)C12O (stereo not drawn) [Example 119, 10-(2'-(1"-morpholinyl)-ethoxy)-Ginkgolide B]
7.28 | CCCCc1ccc(COC2C(=O)OC3OC45C(=O)OC6CC(C(C)(C)C)C32C64C(O)C2OC(=O)C(C)C25O)nc1 (stereo not drawn) [Example 100, 10-(5-butyl-2-pyridinyl)-methoxy-Ginkgolide B]
7.28 | CC1C(=O)OC2C(O)C34C5CC(C(C)(C)C)C36C(OC(=O)C6OCc3ccc(-c6ccccc6)cc3)OC4(C(=O)O5)C12O (stereo not drawn) [Example 81, 10-(4'-phenylbenzyloxy)-Ginkgolide B]
7.33 | CC1C(=O)OC2C(O)C34C5CC(C(C)(C)C)C36C(OC(=O)C6OCCN3CCCCC3)OC4(C(=O)O5)C12O (stereo not drawn) [Example 118, 10-(2'-(1"-piperidinyl)-ethoxy)-Ginkgolide B]
7.33 | Cc1cnc(COC2C(=O)OC3OC45C(=O)OC6CC(C(C)(C)C)C32C64C(O)C2OC(=O)C(C)C25O)c(C)c1N(O)C(=O)c1ccccc1 (stereo not drawn) [Example 106, 10-(4-N-benzoyl-N-hydroxyamino-3,5-dimethyl-2-pyridinyl)-methoxy Ginkgolide B]
7.33 | Cc1ccc(COC2C(=O)OC3OC45C(=O)OC6CC(C(C)(C)C)C32C64C(O)C2OC(=O)C(C)C25O)cc1 (stereo not drawn) [Example 43, 10-(4'-methylbenzyloxy)-Ginkgolide B]
7.35 | Cc1ccccc1COC1C(=O)OC2OC34C(=O)OC5CC(C(C)(C)C)C21C53C(OCc1ccccc1C)C1OC(=O)C(C)C14O (stereo not drawn) [Example 42, 1,10-bis(2'-methylbenzyloxy)-Ginkgolide B]
7.43 | COc1cc(COC2C(=O)OC3OC45C(=O)OC6CC(C(C)(C)C)C32C64C(O)C2OC(=O)C(C)C25O)ccc1O (stereo not drawn) [Example 28]

Same assay, conditions: Oryctolagus cuniculus, read-out: IC50, inhibition of PAF-induced rabbit platelet aggregation

SMILES | pIC50
CC1C(=O)OC2C(O)C34C5CC(C(C)(C)C)C36C(OC(=O)C6OCc3cccc([N+](=O)[O-])c3)OC4(C(=O)O5)C12O (stereo not drawn) [Example 63] | 7.20
COCCOCOc1ccc(COC2C(=O)OC3OC45C(=O)OC6CC(C(C)(C)C)C32C64C(O)C2OC(=O)C(C)C25O)nc1 (stereo not drawn) [Example 114] | 6.86
CC1C(=O)OC2C(O)C34C5CC(C(C)(C)C)C36C(OC(=O)C6OCc3c(F)c(F)c(F)c(F)c3F)OC4(C(=O)O5)C12O (stereo not drawn) [Example 83, 10-(2',3',4',5',6'-pentafluorobenzyloxy)-Ginkgolide B] | 7.14
CC1C(=O)OC2C(O)C34C5CC(C(C)(C)C)C36C(OC(=O)C6OCc3ccc(OC(F)(F)F)cc3)OC4(C(=O)O5)C12O (stereo not drawn) [Example 24] | 7.38
CC1C(=O)OC2C(O)C34C5CC(C(C)(C)C)C36C(OC(=O)C6OCCI)OC4(C(=O)O5)C12O (stereo not drawn) [Example 117, 10-(2'-iodoethoxy)-Ginkgolide B] | 7.27
CC1C(=O)OC2C(O)C34C5CC(C(C)(C)C)C36C(OC(=O)C6OCc3ccccc3F)OC4(C(=O)O5)C12O (stereo not drawn) [Example 87, 10-(2'-fluorobenzyloxy)-Ginkgolide B] | 6.97
CC1C(=O)OC2C(O)C34C5CC(C(C)(C)C)C36C(OC(=O)C6OCc3ccc(N)cc3)OC4(C(=O)O5)C12O (stereo not drawn) [Example 75] | 6.94
CC1C(=O)OC2C(O)C34C5CC(C(C)(C)C)C36C(OC(=O)C6OC(=O)c3ccccc3)OC4(C(=O)O5)C12O (stereo not drawn) [Example 88, 10-benzoyloxy-Ginkgolide B] | 7.32
CC1C(=O)OC2C(O)C34C5CC(C(C)(C)C)C36C(OC(=O)C6OCCc3ccccn3)OC4(C(=O)O5)C12O (stereo not drawn) [Example 101, 10-(2-pyridinyl)-ethoxy-Ginkgolide B] | 6.99
CC1C(=O)OC2C(O)C34C5CC(C(C)(C)C)C36C(OC(=O)C6OCc3ccc([N+](=O)[O-])cc3)OC4(C(=O)O5)C12O (stereo not drawn) [Example 44] | 7.08
